# Assay results: patent US7262009B2, “Method of cell detection” (Matforsk; Norwegian Food Research Institute, priority 2000, dated 2007)
# Legend:
# [1] = test system: purified DNA from C. jejuni; assay: DNase treatment of purified DNA, 5'-nuclease PCR; format: biochemical; conditions: after 30 minutes of DNase treatment
# Experimental: (§1) Amplification reactions (50 μl) contained a DNA sample (1 μl), 1× TaqMan™ Buffer A, 5 mM MgCl2, 200 μM dATP, dCTP, dGTP, and 400 μM dUTF, 0.02 μM. C. Jejuni specific probe, 0.3 μM C. jejuni specific primers—see Table 1 below (each), 1 U AmpErase™ Uracil N-glycosylase (UNG), and 2.5 U AmpliTaq Gold™ DNA polymerase.
# (§2) Before amplification, the PCR mixture was heated to 50° C. in 5 min to let the UNG destroy possibly contaminating PCR products, and 95° C. for 10 min to denature the template DNA. Amplification, profile: 40 cycles of 95° C. for 20 seconds and 60° C. for one minute. Reactions were performed in the ABI Prism® 7700 Sequence Detection System (PE Biosystems, Foster City, Calif., USA). Reaction conditions were programmed and data were analyzed on a power Macintosh 4400/20 (Apple Computer, Santa Clara, Calif., USA) linked directly to the ABE prism® 7700 Sequence Detection system using the SDS 1.6.3 application software (PE Biosystems, Foster City, Calif., USA) as described by the manufacturer.
# The amplification was plotted as ΔRn, which was the normalized reporter signal (reporter signal minus background), against number of cycles. […] This gave threshold cycles (CT), which is defined as the PCR cycle where an increase in fluorescence first occurred, for each amplification plot. […]
# [2] = test system: Campylobacter jejuni type strain DSMZ 4688; assay: Effect of externally added DNase on DNA in heat-treated cells, 5'-nuclease PCR; format: cell-based; conditions: for reduction of the signal compared to control without DNase: 10 U DNase
# Experimental: The effect on the DNA stability at room temperature after heat-treatment of the cultures, and after addition of DNase was investigated. 1.7±0.8×10^7 cells (with DNase) and 5.0±0.6×10^7 cells (without DNase) of C. jejuni type strain were used in these experiments. […] One set of tubes were then incubated further at room temperature, and samples for PCR analysis removed at intervals of 5, 15, and 30 min, 1 h, 6 and 24 hrs, and 5 days. 10 U RQl DNase (Promega, Madison, Wis., USA) and 1× DNase buffer were added to another set of tubes before the incubation at room temperature. Aliquots were analyzed after 5, 15 and 30 min, and after 1 hr, 6 and 24 hours. For the PCR analysis, DNA was purified from 10 μl aliquots from the respective time-points, and the subsequent 5′-nuclease PCR assay performed as described below.
# Dynabeads® DNA Direct I (Dynal AS, Oslo, Norway), 200 μl, were then added to the suspension of bacteria, and the bacteria-bead suspension was incubated at 65° C. for 20 minutes, followed by incubation at room temperature for another 2 minutes. DNA bound to magnetic beads was then drawn to the wall of the microcentrifuge tube by a magnet (MPC®-E, Dynal AS, Oslo, Norway) for 2 minutes. The supernatant containing salts, detergent and cell debris was carefully removed without disrupting the Dynabeads/DNA complex. The beads were washed twice with a washing buffer (buffer 2 from the kit). Finally, the DNA was removed from the beads by resuspending in 40 μl 10 mM Tris HCl, pH 8.0 (buffer 3 from the kit), and incubation at 65° C. for 5 minutes. The beads, now released from the DNA, were collected with the magnet, and the DNA-containing supernatant was transferred to a fresh tube and used directly in the PCR.
# as §1, §2
# The amplification was plotted as ΔRn, which was the normalized reporter signal (reporter signal minus background), against number of cycles. […] This gave threshold cycles (CT), which is defined as the PCR cycle where an increase in fluorescence first occurred, for each amplification plot. […] The CT-values were plotted against log input DNA/cells and gave standard curves for quantification of unknown samples and possibilities to estimate the amplification efficiency in the reaction (Heid, C. A., J. Stevens, K. J. Livak and P. M. Williams, 1996, Real time quantitative PCR, Genome Research 6: 986-994; PE Biosystems, 1997, User bulletin 2; ABI PRISM 7700 Sequence Detection System). […]
# DNA = assay: Time to light inactivation of EMA, real time quantitative PCR; format: biochemical; conditions: EMA exposed to light for 30 s or more prior to binding to DNA; 2, 20, 100 ng/μl
# Experimental: (§3) Amplification reactions (50 μl) contained a DNA sample (1-5 μl), 1× TaqMan™ Buffer A, […], 200 μM dATP, dCTP, dGTP, and 400 μM dUTP, 0.1 μM E. coli specific probe, 0.3 μM E. coli specific primers (each), and 2.5 U AmpliTaq GoldT™ DNA polymerase. PCR samples and controls were prepared in triplicates. Reaction tubes were MicroAmp® Optical tubes and tube caps were MicroAmp® Optical caps. All consumables were supplied by PE Biosystems, Foster City, Calif., USA. Before amplification, the PCR mixture was heated to 95° C. for 10 mins to denature the template DNA. Amplification profile: 40 cycles of 95° C. for 20 seconds and 60° C. for one minute. Reactions were performed in the ABI prism® 7700 Sequence Detection System (PE Biosysrems, Foster City, Calif., USA).
# (§4) The amplification was plotted as ΔRn, which was the normalized reporter signal (reporter signal minus background), against number of cycles. One then chose a threshold signal, which intersected the amplification curves in the linear region of the semi-log plot. This gave threshold cycles (CT), which is detined as the PCR cycle where an increase in fluorescence first occurred, for each amplification plot. Different amplification could then be compared by their respective threshold cycles.
# The light activation was done on ice with a OSRAM SLG1000 lamp (OSRAM, Norway) with a 650 W halogen light bulb at a distance of 10 cm. […]
# E. coli = assay: EMA as living/dead stain: PCR signal from living and killed E. coli; format: cell-based; conditions: for difference in PCR signal intensities between the treated sample and the control: light 10 minutes
# Experimental: Panel B: The signal intensities were determined as pixel values in an 8 bit grayscale by using the program Gel-Pro ANALYZER software (Medica Cybernetics, Silver Spring. Md.). The relative signal intensities for the EMA treated samples are given as a percentage of the untreated samples.
# E. coli was killed by ethanol, heat, and formaldehyde to test the effect of EMA as a living/dead stain. In these experiments aliquots of approximately 10^8 cells of E. coli were pelleted in a microcentrifuge at 8000 rpm for 5 minutes, the supernant removed, and the cells resuspended in 50 μl of the respective liquids; water 96% ethanol, and 2% formaldehyde. The ethanol and formaldehyde treated samples were incubated at room temperature, while the water samples were incubated both at room temperature and at 95° C. All samples were incubated at the respective temperatures for 5 minutes.
# The bacteria were subsequently pelleted by centrifugation, the supernatant removed, and the cells resuspended in 50 μl water. […]
# All the samples were exposed to light for 10 minutes. Subsequently, the samples were resuspended in 500 μl […] (GTC) and 1% sarkosyl containing 1U Dynabeads DNA DIRECT beads (Dynal AS, Oslo, Norway). Incubation was continued at room temperature for an additional 5 minutes. 1 ml 96% ethanol was added, and after 5 minutes the samples were washed twice with 1 ml 70% ethanol. The bead and DNA complex was then resuspended in 50 μl water, and finally heated to 65° C. for 10 minutes to remove residual ethanol. 2% of the purified DNA was used in each amplification reaction as described above.
# 16S rDNA gene (pure DNA) = assay: PCR inhibitory effect of photoactivated and unactivated EMA on pure DNA (16S rDNA PCR, agarose gel); format: biochemical
# Experimental: The PCR inhibitory effects of both photoactivated, and unactivated EMA were investigated for pure DNA. PCR amplifications were carried out on dilution series of 1000, 100 and 10 μg/ml EMA. The 16S rDNA gene was amplified through the application of the forward primer 5′[…]3′ and the reverse primer 5′[…]3′. These primer sites are universally conserved for eubacterial 16S rDNA.
# The PCR amplifications were done using the GeneAmp 9700 PCR amplification system (PE biosystems, Norwalk, Conn., USA). The 50 μl PCR reactions contained 10 pmol of each primer, 200 μM dNTP, 10 mM Tris-HCl (pH 8.8), 1.5 mM MgCl2, 50 mM KCl, 0.1% Triton® x-100, 1 U DynaZyme™ Thermostable DNA Polymerase (Finnzymes OY, Espoo, Finland) and 2 ng template. The cycling parameters were: 94° C. for 30 s, 55° C. for 30 s and 72° C. for 1 minute.
# The cycling step was repeated 25 times. The samples were heated to 94° C. for 5 minutes prior to the amplification, and an extension step at 72° C. for 7 minutes was included after completion of the amplification reactions.
# For each dilution series PCR was employed both on samples where EMA had been covalently photoactivated to DNA through illumination with a Luxor 18W type FL-185 lamp (Luxor ASA, Oslo, Norway) at 5 cm for 15 minutes, and on samples where EMA had been added to the DNA in the dark. […] For 100 and 10 μg/ml, the photoactivated EMA inhibited PCR, while PCR for the unactivated EMA was not inhibited (FIG. 1). 10 μg/ml amplification products were separated on a 1% agarose gel for 45 minutes at 100 volts. The conclusion from these experiments is that EMA covalently bound to DNA is sufficient to inhibit PCR amplification, and that EMA by itself is only inhibitory to PCR at high concentrations.
# E. coil 0157 strain 765 = assay: Viable/dead study with EMA, TaqMan PCR; format: cell-based, E. coli; conditions: for PCR cycle difference: 100 ng/μl EMA for 5 min
# Experimental: as §3, §4
# (§5) The light activation was done on ice with a OSRAM SLG1000 lamp (OSRAM, Norway) with a 650 W halogen light bulb at a distance of 10 cm.
# The strain was killed with 70% isopropyl ethanol for. 30 min. 10 ng/μl and 100 ng/μl EMA were added both to the viable control, and to the killed bacteria. The bacteria were exposed to EMA for 30, 1 min, 5 min, 10 min and 15 min. Exposure to 100 ng/μl for 5 min give the best discrimination with approximately 1 cycle difference for the viable bacteria, and 10 cycles (½^10) for the killed bacteria. […] For treated, i.e. dead bacteria, CT was at 20 PCR cycles for bacteria not exposed to EMA but at 30 for bacteria exposed to EMA.
# purified DNA = assay: Time series for covalent binding of EMA to DNA, real time quantitative PCR; format: biochemical
# Experimental: as §3, §4, §5
# EMA in concentrations 2 ng/μl, 20 ng/μl and 100 ng/μl were added to purified DNA, and exposed to light for 5 s, 15 s, 45 s, 1 min and 3 min. The amount of DNA that could serve as a template was then tested by real time quantitative PCR.
molecule,measurement,setting,value
DNase,input material (DNA) left,[1],about 0.01%
same,reduction of the signal compared to control without DNase,[2]; cells heated at 72° C. for 5 min,1 log
same,reduction of the signal compared to control without DNase,[2]; cells heated at 100° C. for 5 min,1 log
same,reduction of the signal compared to control without DNase,[2]; cells heated at 121° C. for 15 min,1 log
same,difference between the DNase treated samples and the control,[2]; cells incubated at 20° C.,little difference
same,difference between the DNase treated samples and the control,[2]; cells incubated at 55° C.,little difference
"CC[n+]1c(-c2ccccc2)c2cc(N=[N+]=[N-])ccc2c2ccc(N)cc21.[Br-] [EMA, ethidium bromide monoazide]",difference between the control and the test sample,DNA,no significant difference
same,amplification efficiency for the living bacteria,E. coli; EMA 100 μg/ml,reduced the amplification efficiency
same,discrimination between the viable and dead bacteria,E. coli; EMA increased to 100 μg/ml,did not result in a better discrimination
same,difference in PCR signal intensities between the treated sample and the control,"E. coli; bacteria killed by heat (95° C.), EMA 10 μg/ml",about 100%
same,difference in PCR signal intensities between the treated sample and the control,"E. coli; bacteria killed with ethanol, EMA 10 μg/ml",about 100%
same,PCR inhibition,E. coli; ethanol killed bacteria (double-stranded DNA),100%
same,difference in PCR signal intensities between the treated sample and the control,"E. coli; formaldehyde treated sample, EMA 10 μg/ml",85%
same,PCR inhibition,E. coli; heat killed bacteria (single-stranded DNA),100%
same,difference in PCR signal intensities between the controls and the EMA sample,"E. coli; living bacteria, EMA 10 μg/ml",no differences
same,PCR inhibition,"16S rDNA gene (pure DNA); non activated EMA (added in the dark), 1000 μg/ml",inhibited the PCR reaction
same,PCR inhibition,"16S rDNA gene (pure DNA); photoactivated EMA, 10 μg/ml",inhibited PCR
same,PCR inhibition,"16S rDNA gene (pure DNA); photoactivated EMA, 100 μg/ml",inhibited PCR
same,PCR inhibition,"16S rDNA gene (pure DNA); photoactivated EMA, 1000 μg/ml",inhibited the PCR reaction
same,PCR inhibition,"16S rDNA gene (pure DNA); unactivated EMA, 10 μg/ml",not inhibited
same,PCR inhibition,"16S rDNA gene (pure DNA); unactivated EMA, 100 μg/ml",not inhibited
same,PCR cycle difference,E. coil 0157 strain 765; killed bacteria (70% isopropyl ethanol 30 min),~10 cycles
same,CT,"E. coil 0157 strain 765; treated, i.e. dead bacteria exposed to EMA",30 PCR cycles
same,CT,"E. coil 0157 strain 765; untreated, i.e. viable bacteria exposed to EMA",21 cycles
same,PCR cycle difference,E. coil 0157 strain 765; viable bacteria,approximately 1 cycle
same,difference in the PCR cycles (ΔCT) until a detectable signal,"purified DNA; EMA 2, 20 and 100 ng/μl (all concentrations tested), after light exposure",approximately 12
same,time at which the binding reaction was complete,"purified DNA; light exposure, EMA 2-100 ng/μl",about 30 s
same,fraction of DNA that could serve as a PCR template after covalent binding of EMA,"purified DNA; ½^12, from ΔCT","0,000244"
